Test results published in ChEMBL document CHEMBL1130899, “Development of dual-acting agents for thromboxane receptor antagonism and thromboxane synthase inhibition. 2. Design, synthesis, and evaluation of a novel series of phenyl oxazole derivatives” (Bioorg Med Chem Lett, 1998).

Columns and labels:
[1] = Partition coefficient (logP); assay type: physicochemical; conditions: octanol/water
[2] = target: T1, Thromboxane-A synthase (Homo sapiens, UniProt P24557); test: In vitro inhibition of thromboxane synthase (TSI) activity was determined by using human serum levels of TXB2; assay type: cell-free
T1 sequence (P24557 whole entry): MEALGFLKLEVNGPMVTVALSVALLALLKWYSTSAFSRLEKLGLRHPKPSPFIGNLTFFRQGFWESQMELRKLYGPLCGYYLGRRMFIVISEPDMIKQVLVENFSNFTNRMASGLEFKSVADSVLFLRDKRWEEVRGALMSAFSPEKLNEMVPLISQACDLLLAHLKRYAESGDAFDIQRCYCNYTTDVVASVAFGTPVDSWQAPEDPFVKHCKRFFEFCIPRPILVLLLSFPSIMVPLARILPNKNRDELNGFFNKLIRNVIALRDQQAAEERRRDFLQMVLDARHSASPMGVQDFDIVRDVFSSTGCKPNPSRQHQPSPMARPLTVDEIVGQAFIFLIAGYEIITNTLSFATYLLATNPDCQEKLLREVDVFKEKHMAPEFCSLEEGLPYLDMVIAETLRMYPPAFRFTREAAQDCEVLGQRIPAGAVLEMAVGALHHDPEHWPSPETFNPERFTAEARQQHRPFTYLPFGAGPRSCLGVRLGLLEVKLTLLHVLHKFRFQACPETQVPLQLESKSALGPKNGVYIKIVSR

[3] = target: T2, Thromboxane A2 receptor (Homo sapiens, UniProt P21731); test: In vitro thromboxane receptor antagonism was determined using a human platelet binding assay
T2 sequence (P21731 whole entry): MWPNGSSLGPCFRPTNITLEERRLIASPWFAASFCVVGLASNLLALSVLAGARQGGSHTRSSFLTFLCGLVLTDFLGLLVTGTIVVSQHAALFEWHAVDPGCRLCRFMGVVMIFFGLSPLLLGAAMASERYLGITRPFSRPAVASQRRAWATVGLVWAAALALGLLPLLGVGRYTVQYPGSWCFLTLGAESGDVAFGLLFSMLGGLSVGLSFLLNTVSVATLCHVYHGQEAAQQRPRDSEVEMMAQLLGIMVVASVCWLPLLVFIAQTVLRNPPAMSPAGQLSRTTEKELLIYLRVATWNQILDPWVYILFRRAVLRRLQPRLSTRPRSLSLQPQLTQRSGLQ

With `CCCCCNC(=O)c1coc(-c2ccc(/C(=C\CCCCC(=O)O)c3cccnc3)cc2)n1` the logP [1] was 5.23, the IC50 [2] was 31.2 nM and the Kd [3] was 153 nM.
In the case of `O=C(O)CCCC/C=C(\c1cccnc1)c1ccccc1-c1nc(C(=O)NCCCCC2CCCCC2)co1`, the Kd [3] is reported as 1500 nM.
Molecule `O=C(O)CCCC/C=C(/c1cccnc1)c1cccc(-c2nc(C(=O)NCCCCC3CCCCC3)co2)c1` has an IC50 [2] of 19 nM and a Kd [3] of 12.3 nM.
With `O=C(O)CCCC/C=C(/c1cccnc1)c1ccccc1-c1nc(C(=O)NCCCCC2CCCCC2)co1` the Kd [3] was 540 nM.
Molecule `O=C(O)CCCC/C=C(\c1cccnc1)c1cccc(C2=N[C@@H](C(=O)NCCCCC3CCCCC3)CO2)c1` has a Kd [3] of 830 nM.
With `O=C(O)CCCC/C=C(\c1ccc(-c2nc(C(=O)NCCCCC3CCCCC3)co2)cc1)c1cccnc1` the logP [1] was 7.35 and the IC50 [2] was 550 nM.
`CCCCCNC(=O)[C@@H]1COC(c2ccc(/C(=C\CCCCC(=O)O)c3cccnc3)cc2)=N1` gave a Kd [3] of 244 nM.
For `O=C(O)CC/C=C(\c1ccc(-c2nc(C(=O)NCCCCC3CCCCC3)co2)cc1)c1cccnc1`, the IC50 [2] was 3170 nM and the Kd [3] was 93.3 nM.
Molecule `O=C(O)CCCC/C=C(\c1ccc(C2=N[C@@H](C(=O)NCCCCC3CCCCC3)CO2)cc1)c1cccnc1` has an IC50 [2] of 82.1 nM.
In the case of `O=C(O)CCCC/C=C(\c1cccnc1)c1cccc(-c2nc(C(=O)NCCCCC3CCCCC3)co2)c1`, the IC50 [2] is reported as 23 nM and the Kd [3] is reported as 630 nM.
Work on `O=C(O)CCCC/C=C(/c1ccc(C2=N[C@@H](C(=O)NCCCCC3CCCCC3)CO2)cc1)c1cccnc1` yielded an IC50 [2] of over 10000 nM.
Molecule `O=C(O)CCCC/C=C(/c1ccc(-c2nc(C(=O)NCCCCC3CCCCC3)co2)cc1)c1cccnc1` has a Kd [3] of 147 nM.
For `O=C(O)CCCC/C=C(\c1ccccc1)c1cccnc1` [(E)-ISBOGREL], the Kd [3] was 8200 nM.
